Test results from patent publication US20060025485A1, “Hydroxybenazamide compounds for treatment of cancer” (priority 2004, published 2006).
“Also recorded” adds a separate entry of the source. Read-outs that look alike come from different tables or passages of the source.

Legend:
[1] = tested on: BON pancreatic carcinoid cells; test: cell culture pictures of BON cells; assay type: cell-based, human; details: 100 μM, 4 days, versus DMSO alone
Protocol: Cell culture. Human pulmonary carcinoid cells (NCI-H727) were obtained from American Type Culture Collection (Manassas, Va.) and human pancreatic carcinoid tumor cells, BON a generous gift of Drs. Evers and Townsend (Parekh et al., 1994), were maintained in RPMI 1640 and D-MEM-F12 media (Life Technologies, Rockville, Md.) respectively supplemented with 10% Fetal Bovine Serum (Sigma, St. Louis, Mo.), 100 IU/ml penicillin and 100 μg/ml streptomycin (Life Technologies) in a humidified atmosphere of 5% CO2 in air at 37° C. The maintenance of BON-raf cells and the activation of Raf-1 were followed as described previously (Sippel et al., 2003; Sippel and Chen, 2002; McMahon, 2001).
(§1) ZM 336372 treatment. H727 and BON cells were plated at 50-60% confluence in 100 mm cell culture dishes and incubated overnight.

[2] = tested on: H727 pulmonary carcinoid cells; test: MTT cell proliferation assay, H727 cells; assay type: cell-based, human; details: 100 μM, to day 16, versus DMSO
Protocol: MTT Cell Proliferation Assay. […] Cells were trypsinized and plated in triplicate to 24 wells plates and allowed to adhere overnight. […] Cells were incubated and maintained with change of treatments at 2 days. Cell growth rates were analyzed after the addition of MTT reagent to the cultured cells following manufacturer's instructions. Absorbance was determined using spectrophotometer at a wave length of 540 nm.

[3] = tested on: TT medullary thyroid cancer cells; test: MTT assay, TT cells; assay type: cell-based; details: 100 μM, versus DMSO
[4] = tested on: Raf-1/MEK/ERK; test: Western analysis of Raf-1 pathway activation, BON cells; assay type: cell-based, human; details: 2 days
Protocol: H727 and BON cells were plated at 50-60% confluence in 100 mm cell culture dishes and incubated overnight.
(§2) Western blot analysis. Cellular extracts were prepared and quantified by BCA protein assay kit (Pierce, Rockford, Ill.) as previously described (Sippel et al., 2003). 30-50 μg of denatured proteins from each sample underwent electrophoresis on a SDS-polyacrylamide gel and transferred to a nitrocellulose membranes (Schleicher and Schuell, Keene, N.H.). Membranes were blocked for 1 hr in milk solution (1×PBS, 5% non-fat dry milk, 0.05% Tween-20) and then incubated at 4° C. overnight with primary antibodies. The following primary antibody dilutions were used: phospho-ERK 1/2 (1:1,000); phospho-MEK (1:1,000); phospho-Raf-1 (Serine338) (1:1,000); p21 and p18, (1:1,000); (Cell Signal Technology, Beverly, Mass.), Chromogranin A (1:2,000; Zymed Laboratories, San Francisco, Calif.); MASH-1 (1:1000, BD Pharmingen) and G3PDH (1:10,000; Trevigen, Gaithersburg, Md.). After primary antibody incubation, membranes were washed 3×5 min in PBS-T wash buffer (1×PBS, 0.05% Tween 20). Then the membranes were incubated with either 1:2,000 dilution of goat anti-rabbit or goat anti-mouse secondary antibody (Cell Signal Technology, Beverly, Mass.) depending on the source of the primary antibody for 1 hr at room temperature. Membranes were washed 3×5 min in PBS-T wash buffer and developed by Immunstar™ HRP (Bio-Rad Laboratories, Hercules, Calif.) according to the manufacturer's directions. For the detection of hASH1 protein, membranes were developed with SuperSignal West Femto chemiluminescence reagent (Pierce).

[5] = tested on: Chromogranin A; test: Western analysis of CgA, BON cells; assay type: cell-based, human; details: 20 to 100 μM, 2 days
Protocol: as §1
as §2, with “Membranes were washed 3×5 min in PBS-T wash buffer and developed by Immunstar™ HRP (Bio-Rad Laboratories, Hercules, Calif.) according to the manufacturer's directions. For the detection of hASH1 protein, membranes were developed with SuperSignal West Femto chemiluminescence reagent (Pierce).” left out

[6] = tested on: p18; test: Western analysis of cell cycle inhibitor p18, H727 cells; assay type: cell-based, human; details: 20 μM and 100 μM, 2 days
Protocol: as §1
as §2, with “Membranes were washed 3×5 min in PBS-T wash buffer and developed by Immunstar™ HRP (Bio-Rad Laboratories, Hercules, Calif.) according to the manufacturer's directions. For the detection of hASH1 protein, membranes were developed with SuperSignal West Femto chemiluminescence reagent (Pierce).” left out

[7] = tested on: MiaPaCa-2; test: cell morphology after 9-day treatment, MiaPaCa-2 cells; assay type: cell-based
Text: (§3) The results were assay using standard MTT, Western blot and cytoxocity assays.

[8] = tested on: HepG2; test: HepG2 MTT Assay; assay type: cell-based; details: HepG2, three concentrations
Protocol: FIG. 18—HepG2 MTT Assay. The MTT assay is a laboratory test for measuring cellular proliferation (cell growth). MTT is added to a cell culture and is modified into a dye by enzymes associated with metabolic activity in a live cell. MTT is short for 3-(4,5-dimethylthiazol-2-yl)-2,5-diphenyltetrazolium bromide.
as §3

[9] = tested on: HT-29; test: HT-29 MTT Assay; assay type: cell-based; details: HT-29, varying concentrations
[10] = tested on: pMEK and p-MAPK; test: Western blot of pMEK and p-MAPK, HT-29 cells; assay type: cell-based
Text: as §3

[11] = tested on: p-MAPK; test: Western blot of p-MAPK, Panc-1 cells; assay type: cell-based; details: all concentrations tested
Text: as §3

[12] = tested on: p-MAPK; test: Western blot of p-MAPK, MiaPaCa-2 cells; assay type: cell-based; details: all concentrations tested
Text: as §3

[13] = tested on: raf-1; details: cited from earlier work
[14] = tested on: H727 cells
Protocol: Cells tested (H727 and BON) were harvested by trypsinization and plated at a cell density of 3,000 cells/well of each microtiter plate. Cells were grown for 4 hrs at 37° C., with 5% CO2 in a humidified incubator to allow cell attachment to occur before compound addition. […] 10 μl of each compound stock was added to duplicate microtiter plates for each cell line. The final concentration of DMSO in all wells was 1%. To test 200 μM, 2% DMSO was added to each well. Data was compared to the effect of 2% DMSO. All compounds were tested in duplicate. Cells were incubated with the test compounds for 72 hrs before reading the assay. Then processing and calculation were performed according to manufacturer's directions for Cell Titer Glo Assay (Promega, Madison, Wis.).

Cc1ccc(NC(=O)c2cccc(N(C)C)c2)cc1NC(=O)c1ccc(O)cc1 [ZM336372, N-[5-(dimethyl-aminobensamido)-2-methylphenyl]-4-hydroxybenzamide]
growth of BON cells in culture [1]: dramatic growth arrest; also recorded: clear difference in growth
H727 cell proliferation (MTT) [2]: clear suppression of growth; also recorded: growth suppressed; also recorded: inhibited
growth of TT cells (MTT) [3]: clear suppression of growth
phosphorylated Raf-1 at serine 338 (pRaf-1) ([4]; 20 μM and 100 μM): dose dependent increases
phosphorylated ERK 1/2 (pERK, pMAPK) ([4]; 20 to 100 μM): increased phosphorylation of both MEK and MAPK; also recorded: strong activation of ERK 1/2 and MEK 1/2; also recorded: increasing phosphorylated MEK and MAP kinase; also recorded: dose dependent increases
phosphorylated MEK 1/2 (pMEK) ([4]; 20 to 100 μM): increased phosphorylation of both MEK and MAPK; also recorded: strong activation of ERK 1/2 and MEK 1/2; also recorded: increasing phosphorylated MEK and MAP kinase; also recorded: dose dependent increases
CgA (chromogranin) level [5]: decreased secretion of chromogranin; also recorded: reduction in both CgA and hASH1; also recorded: decreasing expression of chromogranin at higher concentrations; also recorded: dose dependent decrease
p18 expression [6]: induced; also recorded: significant induction
cell death ([7]; MiaPaCa-2, 100 μM, 9-day cycle): significant cell death
cell numbers in culture ([7]; MiaPaCa-2, 100 microM, day 9): dramatic decrease in cell numbers
cellular proliferation (MTT) [8]: effects at low concentrations; also recorded: reduction in cellular proliferation
cellular proliferation (MTT) [9]: effects at low concentrations; also recorded: effective at decreasing cellular proliferation
p-MAPK level [10]: increase in the levels of both pMEK and p-MAPK
pMEK level [10]: increase in the levels of both pMEK and p-MAPK
p-MAPK level [11]: increase in p-MAPK following treatment at all concentrations tested
p-MAPK level [12]: increase in p-MAPK following treatment at all concentrations tested
activation of raf-1 ([13]; COS1 cells): > 100 fold
activation of raf-1 ([13]; NIH3T3 cells): > 100 fold
activation of raf-1 ([13]; PC12 cells): > 100 fold
raf-1 activation compared with EGF stimulation ([13]; Swiss 3T3 cells): much higher than that attained after stimulation with epidermal growth factor (EGF)
time for which induction of raf-1 was sustained ([13]; Swiss 3T3 cells): at least 3 hours
time of exposure after which induction of raf-1 occurred ([13]; Swiss 3T3 cells): 60 min
activation of raf-1 ([13]; human 293 cells): > 100 fold
IC50 (cytotoxicity) [14]: did not produce enough cellular cytotoxicity to estimate an IC50
